# In US7662842B2, “Thiazolidinone amides, thiazolidine carboxylic acid amides, and serine amides, including polyamine conjugates thereof, as selective anti-cancer agents” (Ohio State Univesity Research Foundation, priority 2003, dated 2010):
# Key:
# [1] = tested on: SKMEL-188 melanoma cells; assay: Sulforhodamine B assay in melanoma cells, SKMEL-188; assay type: cell-based; conditions: SK-MEL-188, 48 h, SRB assay, 48 h incubation; melanoma cell line
# [2] = tested on: WM-164 cells; assay: Sulforhodamine B assay in melanoma cells, WM-164; assay type: cell-based; conditions: Homo sapiens, WM164, read-out: IC50 WM-164; SRB assay, 48 h incubation; melanoma cell line
# [3] = tested on: human dermal fibroblasts; assay: Sulforhodamine B assay, fibroblast control cells; assay type: cell-based; conditions: Homo sapiens, Fibroblast, 48 h, SRB assay, 48 h incubation
# [4] = tested on: LNCaP cells; assay: DNA fragmentation by agarose gel electrophoresis; assay type: cell-based, human; conditions: treatment for 24 to […], 3-50 μM, FIGS. 4A-B
# Method: In FIG. 4B, the dose and exposure time are indicated for compound 5 as follows: lane 1, 100 bp DNA marker; lane 2, 5 μM for 24 h; lane 3, 5 μM for 48 h; lane 4, 5 μM for 72 h; lane 5, 5 μM for 96 h; lane 6, 3 μM for 96 h; lane 7, 8 μM for 48 h; and lane 8, 8 μM for 72 h.
# [5] = tested on: SKMEL-188 melanoma cells; assay: DNA content analysis by flow cytometry; assay type: cell-based; conditions: SKMEL-188, 48 hours, 6 μM and 60 μM, FIG. 11B, Hydrochloride
# Method: SKMEL-188 melanoma cells were incubated with Compound 4(R) at 60 μM for 48 hours. FIG. 11A is a graph showing the cytotoxicity as measured by LDH release from the cells following treatment. Data is presented as mean±SEM (n=8), *p<0.05, **p<0.005. FIG. 11B is a pair of graphs that show the DNA content, as measured by flow cytometry, of cells that were exposed to control (left) and Compound 4(R) (right).
# DNA Content Analysis: SKMEM-188 cells were seeded in 10 cm Petri dishes at a density of 10^6 cell per dish. At 12 hours, the medium was changed to 5% FBS with different concentrations of the testing compound. Cells were incubated for 48 hours, and media with compounds were changed every 24 hours. Cells were trypsinized, washed with PBS, and fixed in ice-cold 70% ethanol. After fixing, the ethanol was removed by centrifugation, and cells were incubated in phosphate-citrate buffer (0.2M Na2HPO4, 4 mM citric acid, pH=7.8) for 1 hour. […] Samples were shaken for 30 minutes, and analyzed with FACS Caliber cytometer (Becton Dickinson, San Diego, Calif.). Data was analyzed and graphs were prepared using Modfit 2.0 (Verity Sofware House, Topsham, Me.).
# To examine more closely the cell death induced by the tested compounds, LDH release was measured by calorimetric assay and DNA content was analyzed by flow cytometry. […]
# [6] = tested on: effector capsase-3; assay: Activation of effector caspase-3; assay type: cell-based
compound,measurement,setting,value
"CCCCCCCCCCCCCCNC(=O)[C@@H]1CSC(c2ccccc2)N1.Cl (mixture of isomers) [Compound 4, (2RS, 4R)-2-Phenylthiazolidine-4-carboxylic acid tetradecylamide Hydrochloride]",IC50,[1],570 nM
same,IC50,[2],460 nM
same,IC50,[3],6100 nM
same,DNA fragmentation (apoptosis) in LNCaP cells,[4],induce cell apoptosis
same,DNA content / mode of cell death,[5]; listed as 4 (R enantiomer),causes necrotic cell death
same,DNA content / mode of cell death,[5]; listed as 4R,"disappearance of peaks corresponding to viable, proliferating cells"
same,Activation of effector caspase-3,[6],no increase in activity
